From publication PMC10819729 (Pharmaceutics, 2023)
Counter-ions that a name gives are not always drawn. Like-named read-outs stand apart in the source and are kept apart here.

Key:
[1] = in vivo; parameters: species or system mice; details: male, C57BL/6J, mouse, 30 mg/kg; for half-life: T1/2 (plasma)
Method: Adult male C57BL/6J mice (8–9 weeks, 23–27 g) were purchased from the Jackson Laboratory, Bar Harbor, ME, USA. Mice were housed in ventilated cages with controlled temperature and humidity, and a 12 h light/dark cycle. Food and water were available ad libitum, and animals were habituated to the experimental room for three days before the start of the study. All procedures were conducted according to a protocol approved by the Texas Tech University Health Sciences Center Institutional Animal Care and Use Committee (protocol 21039, approved on 26 July 2023). […] Plasma and brain samples were collected 5, 20, 60, 120, and 180 min after the drug administration. […] Mice were deeply anesthetized with isoflurane and decapitated, followed by blood collection in a microtube containing heparin. Plasma was obtained by centrifugation of the microtube for 10 min at 5000× g at 4 °C. The brains were quickly removed and delicately cleansed on filter paper with sterile saline, the surface vasculature was removed using gauze tipped in saline, and the forebrains were quickly frozen using dry ice. Plasma and brain samples were stored at −80 °C until bioanalysis. The brain samples were homogenized at 1:10 (w/v) in LC-MS-grade water using BioSpec Tissue-Tearor Homogenizer. The plasma sample was diluted 10-fold (v/v) in LC-MS-grade water. The plasma samples and brain homogenates were subjected to protein precipitation using ice-cold acetonitrile (1:4 ratio) containing 0.1% formic acid along with the IS (10 ng/mL). The samples underwent continuous vortexing for 5 min, followed by centrifugation at 12,800× g at 4 °C. The resulting clear supernatant was used for injection into the mass spectrometer. LC-MS/MS analysis was conducted using a QTRAP 5500 mass spectrometer (SCIEX, Foster City, CA, USA) connected with a SHIMADZU Prominence LC system (Kyoto, Japan), consisting of an LC-30AD solvent delivery unit, a DGU-20A3R degassing unit, a CTO-30A column oven, and a SIL-30AC autosampler. Chromatographic separation was achieved on an EVO-C18 100Å column (1.7 µm i.d., 50 × 2.1 mm). The mobile phase comprised 0.1% formic acid in water (A) and 0.1% formic acid in acetonitrile (B) at a flow rate of 0.3 mL/min. […] The autosampler and column temperatures were 4 °C and 40 °C, respectively. The injection volume was 2 μL. The mass spectrometric detection of the analytes was executed using multiple reaction monitoring (MRM) with an electrospray ionization (ESI) source in positive ion mode. The conditions were curtain gas, 35 psi; ion spray voltage, 5500 V; temperature, 500 °C; ion source gas 1, 50 psi; and ion source gas 2, 55 psi. […] For milnacipran-d10, which served as the IS, the MH^+ was monitored at m/z 257.2, whereas a fragment at m/z 110.2 was monitored as the product ion. […] Data acquisition and processing were carried out using Sciex Analyst (version 1.7) and MultiQuant software (version 3.0), respectively. The pharmacokinetic parameters were assessed using standard non-compartmental analysis. Microsoft Excel and GraphPad Prism 8.4.3 software were used for calculations and graphical presentation. The apparent first-order terminal rate constant (Kel) with 95% confidence interval (95% CI) was obtained in Prism by linear regression of log-transformed plasma concentration versus time data. The linear trapezoidal model was used for both IV and IP administration to determine area under the curve from time 0 to 3 h (AUC0-3). AUC0-∞ (area under the curve from time 0 to infinity) was obtained by extrapolation to infinity, using the mean concentration at the terminal time point and Kel. The standard errors (SE) of AUC0-3 and AUC0-∞ were calculated applying Bailer’s method for sparse data. Cmax and Tmax values after IP administration are based on actual measurements for the noted sampling time-points. The terminal T1/2 with CI was calculated as 0.693/Kel. […] For the IV route, Vd was calculated using the formula Dose/C0, and clearance (Cl) was determined as Vd*Kel. […]

[2] = human, in vivo, cited from earlier work
[3] = human; cited from earlier work
[4] = cited from earlier work

SMILES: CCN(CC)C(=O)C1(c2ccccc2)CC1CN (racemic) [milnacipran, (±)-[1R(S), 2S(R)]-2-(aminomethyl)-N, N-diethyl-1-phenylcyclopropanecarboxamide hydrochloride]
- bioavailability [1]: 92.5%
- AUC(0-inf) ([1]; ip): 11000 ng·h/mL
- AUC(0-t) ([1]; ip): 10300 ng·h/mL
- Cmax ([1]; ip): 8530 ± 690 ng/mL
- Kterm (plasma) ([1]; ip): 0.016 (0.013 to 0.019) min^−1
- MRT ([1]; ip): 58.3 min
- Tmax ([1]; ip): 5 min
- Vd ([1]; ip): 3.37 L/kg
- clearance ([1]; ip): 39.5 mL/min/kg
- half-life ([1]; ip): 42.5 min
- Tmax ([1]; ip, Tmax (brain)): ~60 min
- AUC(0-inf) ([1]; iv): 11800 ng·h/mL
- AUC(0-t) ([1]; iv): 10400 ng·h/mL
- Kterm (plasma) ([1]; iv): 0.012 (0.011 to 0.013) min^−1
- MRT ([1]; iv): 57 min
- T1/2 (plasma) ([1]; iv): 59.2 (54.4 to 64.1) min
- Vd ([1]; iv): 3.65 L/kg
- clearance ([1]; iv): 42.7 mL/min/kg
- half-life ([1]; iv): 59 min
- Tmax ([1]; iv, Tmax (brain)): ~60 min
- bioavailability ([2]; po): ~ 90%
- time to peak plasma concentrations ([2]; po): 2 to 4 h
- terminal elimination half-life [2]: 360 to 600 min
- volume of distribution [2]: 5.3 L/kg
- Plasma protein binding [3]: around 13%
- half-life ([4]; rat, in vivo, iv, 4.5 mg/kg): 402 min
- half-life ([4]; rats, intranasal, 20 mg/kg): 67.9 min
